The source of these data is paper PMC9329053, “Discovery of Novel Tyrosinase Inhibitors From Marine Cyanobacteria” (Frontiers in Microbiology, 2022).

Read-outs that look alike come from different tables or passages of the source.

Data set [1] addresses Mushroom tyrosinase. To be noted: cited from earlier work.
Data set [2] has as its target T1, mushroom tyrosinase (A. bisporus) (Agaricus bisporus, UniProt C7FF04).
T1 construct: purchased Sigma-Aldrich and Worthington Biochemical Corp
The experiment in a line: End-point colorimetric tyrosinase inhibition assay (broad screening). It counts as biochemical. As to conditions: within 20 minutes; 475 and 490 nm; blank with enzyme rises to ~0.100.
Description: Four types of assay wells were designated for each screening plate (see Supplementary Figure S2 for visualization), in which the following reaction mixtures were added: A [Blank Control with Enzyme] contains 2 μl of DMSO, 118 μl of prepared 0.067 M sodium phosphate buffer and 40 μl of tyrosinase (100 units/ml) in the same buffer; B [Blank Control without Enzyme] contains 2 μl of DMSO and 158 μl of 0.067 M sodium phosphate buffer; C [Testing Material with Enzyme] contains 2 μl of sample (1 mg/ml in DMSO), 118 μl of 0.067 M sodium phosphate buffer and 40 μl of tyrosinase (100 Units/mL) in the same buffer; D [Testing Material without Enzyme] contains 2 μl of sample (1 mg/ml in DMSO) and 158 μl of 0.067 M sodium phosphate buffer. Samples were tested in triplicate.
The final test sample concentration was 10 μg/ml, while the final DMSO concentrations for both negative controls and samples kept ≤1%. […] Forty-five seconds of shaking was performed by the instrument before the wells were read.
The percentage inhibition of the tyrosinase activity was calculated by the equation: % Inhibition = {[(A − B) − (C − D)]/(A − B)} × 100, where A, B, C and D are all OD values from the corresponding wells at the same time point. It reflects the inhibitory strength of the testing material by comparing to the blank condition where no inhibitor is added.

Data set [3] is described as follows: Solubility of ScyM in the assay buffer system.
The target of data set [4] is T1, mushroom tyrosinase (A. bisporus). As to the kind of experiment: Dynamic dose-dependent tyrosinase inhibition study. It counts as biochemical. How it is done:
Respectively, the final concentration gradient of the test samples was set to be 200, 150, 75, 25, 5, and 1 μM. For OD measurements, the plate was read in the dynamic mode for 60 min with measurements recorded every minute, using the SpectraMax M3 plate reader at 475 nm and 490 nm. Forty-five seconds of shaking was also performed before first reading to retain method consistency.

For data set [5], the system named is NCI-H460 human lung carcinoma cell line. The experiment in a line: MTT cytotoxicity assay. The format is cell-based. As to conditions: H460 human lung cancer cells; no significant effect at concentration as high as 254 μM. How it is done: The cytotoxicity assay was performed using a protocol previously published ([Yu H.-B. et al., 2019]; [Leber et al., 2020]). Briefly, the MTT staining method was used to determine the cytotoxicity of compounds of interest using the NCI-H460 human lung carcinoma cell line purchased from ATCC (Manassas, VA, United States). The cells were grown in flasks and then seeded into wells at 3.33 × 10^4 cells/ml of Roswell Park Memorial Institute (RPMI-1640) medium with standard fetal bovine serum (FBS), leading to 180 μl/well. The cells were then pre-incubated for 24 h at 37°C in 96-well plates before drug was added. Thereafter, with addition of diluted compounds of interest dissolved in DMSO, plates were incubated for an additional 48 h and then stained with MTT (thiazolyl blue tetrazolium bromide 98%; Sigma-Aldrich) for 25 min, after which the optical densities (OD) were recorded at 630 and 570 nm for each well on a SpectraMax M3 plate reader (Molecular Devices, San Jose, CA, United States). Doxorubicin and 1% DMSO in RPMI-1640 without fetal bovine serum were used as positive and negative controls, respectively. Polyethylene glycol (PEG) was used to facilitate dissolution of compounds with limited solubility.

A further data set concerns the target T2, tyrosinase (Agaricus bisporus, UniProt C7FF04).
T2 construct: purchased Sigma-Aldrich and Worthington Biochemical Corp
As to the kind of experiment: Isobologram / interaction index analysis of ScyM and KA. It counts as biochemical, A. bisporus. To be noted: single compounds, determined again for the isobologram; read-out: IC50 (another round of dose-dependent assays).

The target in data set [6] is T3, mushroom tyrosinase (Agaricus bisporus, UniProt C7FF04).
T3 construct: purchased Sigma-Aldrich and Worthington Biochemical Corp
As to the kind of experiment: Kinetic analysis of tyrosinase and inhibitors (Lineweaver-Burk). The format is biochemical, A. bisporus. How it is done: The Lineweaver–Burk plot was generated using Graphpad Prism 9.2.0. Experiments were performed in triplicate.
A kinetic study was performed to better understand the tyrosinase inhibitory properties of ScyM. For this kinetic mode analysis, varying concentrations of substrate and inhibitor were used in the assays in order to generate Lineweaver–Burk plots. […] The Lineweaver–Burk plot (Figures 6A,B), also known as the double reciprocal plot, is commonly used to determine the mechanism of how an inhibitor is inhibiting an enzyme. […] Two inhibition parameters, the Michaelis–Menten constant (Km) and maximal velocity (Vmax), are also visualized in this plot. […] The apparent Km and Vmax values were calculated as an average of triplicate measurements and are provided with standard deviations (see Table 2).

Details of data set [7]: method as in Malla and Sommer, 2014; Kang et al., 2020. To be noted: ref Malla and Sommer, 2014; Kang et al., 2020; cited from earlier work.
The mark [8] stands for this setting: mushroom tyrosinase, ref Paudel et al., 2019.
The mark [9] stands for this setting: mushroom tyrosinase, SD not given, ref Sheng et al., 2018.
Setting [10] is: mushroom tyrosinase, SD not given, ref Wu et al., 2013.
Where [11] appears, read: mushroom tyrosinase, SD not given, ref Li et al., 2005.

T1 sequence (C7FF04 1-392): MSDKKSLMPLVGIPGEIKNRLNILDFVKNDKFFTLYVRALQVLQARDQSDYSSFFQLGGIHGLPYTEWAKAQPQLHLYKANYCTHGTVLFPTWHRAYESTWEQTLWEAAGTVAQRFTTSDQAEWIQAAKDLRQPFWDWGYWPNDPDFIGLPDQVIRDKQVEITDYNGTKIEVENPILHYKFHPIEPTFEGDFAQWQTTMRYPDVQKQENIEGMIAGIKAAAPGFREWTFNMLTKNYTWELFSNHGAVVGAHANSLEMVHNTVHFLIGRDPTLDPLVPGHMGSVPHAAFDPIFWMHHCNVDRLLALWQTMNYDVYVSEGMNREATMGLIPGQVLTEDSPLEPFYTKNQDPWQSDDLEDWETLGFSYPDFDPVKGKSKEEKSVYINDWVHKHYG
T3 sequence (C7FF04 1-392): as above
T2 sequence (C7FF04 1-392): as above

In the case of `OCCc1c(Br)c(O)c(O)c(Br)c1Br` [2,3,6-Tribromo-4,5-dihydroxybenzyl methyl alcohol], the concentration for half-maximal inhibition (IC50) on Mushroom tyrosinase [1] (setting [8]) was 270.5 ± 2.04 µM. In the data set on Mushroom tyrosinase [1] (ref Paudel et al., 2019), the Mechanism entry is listed as “Competitive”.

Consider `Cc1ccc(C(C)C)c(OC(=O)/C=C/c2ccc(O)cc2)c1` [(E)-2-Isopropyl-5-methylphenyl-3-(4-hydroxyphenyl)acrylate], for which the IC50 at Mushroom tyrosinase [1] (setting [9]) is 10.6 µM. Also, the Mechanism result in the data set with Mushroom tyrosinase [1] (ref Sheng et al., 2018) is reported as “Mixed”.

For the compound `O=C1Cc2c([nH]c3ccccc23)/C1=C\c1ccc(O)cc1` [ScyM, scytonemin monomer], the “OD reading with tyrosinase enzyme” value in data set [2] is listed as ~ 0.080. Also, in data set [3] (0.067 M sodium phosphate buffer, ≤1% DMSO, precipitate seen at 75, 150 and 200 μM), the “saturation point in the assay system” value is reported as “less than 75 μM”. For the same compound, in [3] (range of 0–10 μM), the “dissolution in the assay buffer system” value was “fully dissolves with no precipitate”. The IC50 in [4] is 4.9 ± 0.3 µM; at tyrosinase, 4.7 µM. Besides, in data set [4] (read-out: inhibition by crude ScyM), the inhibition at 25 µM was about 60%. The inhibition at 10 µM in data set [4] (read-out: inhibition by purified ScyM) was about 60%. The cytotoxicity result in data set [5] is given as “non-cytotoxic”. The Inhibition mode result at mushroom tyrosinase [6] (Lineweaver-Burk plot, L-Dopa substrate) is “Mixed”. On mushroom tyrosinase [6] (Table 3, this experiment), the Mechanism result was “Mixed”. The “Vmax (OD·min^−1)” value on mushroom tyrosinase [6] (apparent Vmax of tyrosinase with inhibitor, L-Dopa substrate, triplicate with SD) turned out to be 5.98 ± 0.52 OD·min^−1.

For `O=C1Cc2c([nH]c3ccccc23)/C1=C\c1ccc(O)cc1` (hydrate or solvate) [ScyM, scytonemin monomer], the melting point was over 210 °C.

With `CC[C@H](C)[C@@H]1NC(=O)[C@H](Cc2ccc(O)cc2)N(C)C(=O)[C@H]([C@H](C)O)N2C(=O)[C@H](CC[C@H]2O)NC(=O)[C@H](CC(C)C)NC(=O)[C@@H](NC(=O)[C@H](CCC(N)=O)NC(=O)[C@H](CCc2ccc(O)cc2)NC(=O)[C@H](O)CO)[C@@H](C)OC1=O` [oscillapeptin G], the half-maximal inhibitory concentration (IC50) at Mushroom tyrosinase [1] (tyrosinase, post-conversion, ref Sano and Kaya, 1996) was about 100 µM.

On to `O=c1cc(-c2ccccc2)oc2cc(O)c(O)c(O)c12` [Baicalein], for which the IC50 at Mushroom tyrosinase [1] (mushroom tyrosinase, SD not given, ref Guo et al., 2018) was 110 µM. For the same compound, in the data set with Mushroom tyrosinase [1] (ref Guo et al., 2018), the Mechanism entry is “Mixed”.

In the case of `CC(=O)OC[C@]12[C@H](OC(C)=O)[C@H](O)C[C@H](C)[C@]1(OC(C)=O)[C@@H](OC(C)=O)[C@@H](C(C)(C)O)C[C@H]2OC(=O)c1ccccc1` [1β,5α,6α,14-Tetraacetoxy-9α-benzoyloxy-7β H-eudesman-2β,11-diol], the IC50 at Mushroom tyrosinase [1] (setting [10]) is 14.8 µM.

As for `C=C[C@]1(O)CC(NC=O)=CC1=O` [Myrothenone A], on Mushroom tyrosinase [1] (setting [11]), the concentration for half-maximal inhibition (IC50) was 6.6 µM.

For “Bis-(2,3,6-tribromo-4,5-dihydroxybenzyl methyl ether”, the IC50 at Mushroom tyrosinase [1] (setting [8]) is 111 ± 4.95 µM. For the same compound, the Mechanism result with Mushroom tyrosinase [1] (ref Paudel et al., 2019) is given as “Competitive”.

In the case of `O=C(O)c1cccc(-c2ccccc2)c1` [3-Phenylbenzoic acid (3-PBA), 3-Phenylbenzoic acid], the IC50 on Mushroom tyrosinase [1] (mushroom tyrosinase, SD not given, ref Oyama et al., 2016) is 36.3 µM. Also, in the data set on Mushroom tyrosinase [1] (ref Oyama et al., 2016), the Mechanism entry is reported as “Mixed”.

On to `CCCCCc1cccc(=O)o1` [6-n-Pentyl-α-pyrone], for which the IC50 on Mushroom tyrosinase [1] (setting [11]) was 0.8 µM.

In [4] (35 μM), `COc1ccc(/C=C2/C(=O)Cc3c2[nH]c2ccccc32)cc1` [ScyM-OMe, O-Methyl Scytonemin Monomer] had an inhibition at 35 µM of about 1%.

Consider `COc1ccc(/C=C/C(=O)Oc2cc(OC)ccc2C(C)=O)cc1` [(E)-2-Acetyl-5-methoxyphenyl-3-(4-methoxyphenyl)acrylate], for which, on Mushroom tyrosinase [1] (setting [9]), the half-maximal inhibitory concentration (IC50) is 8.3 µM. The Mechanism entry in the data set on Mushroom tyrosinase [1] (ref Sheng et al., 2018) is “Mixed”.

As to `O=C(O)c1ccc(C(=O)O)cc1` [Terephthalic acid], on Mushroom tyrosinase [1] (mushroom tyrosinase, ref Yin et al., 2011), the half-maximal inhibitory concentration (IC50) was 26600 µM. Besides, in the data set on Mushroom tyrosinase [1] (ref Yin et al., 2011), the Mechanism result was “Mixed”.

As for `CC(=O)O[C@@]12C[C@@H](C(C)(C)O)C[C@@H](OC(=O)c3ccccc3)[C@@]1(CO)[C@H](O)[C@H](O)C[C@@]2(C)OC(C)=O` [4α,5α-Diacetoxy-9α-benzoyloxy-7βH-eudesman-1β,2β,11, 14-tetraol], on Mushroom tyrosinase [1] (setting [10]), the IC50 was 22.3 µM.

For the compound scytonemin, in [7], the cytotoxicity result is reported as “non-cytotoxic”. Besides, the “tyrosinase inhibition in dose-dependent assay” value in [4] (all concentrations tested, from 1 up to 200 μM) is given as “almost no inhibition”.

Turning to `O=C1C=C2CC3(O)COc4cc(O)ccc4C3=C2C=C1O` (stereo not drawn) [Brazilein], on Mushroom tyrosinase [1] (mushroom tyrosinase, ref Hridya et al., 2015), the IC50 is 21200 µM. Also, the Mechanism result in the data set with Mushroom tyrosinase [1] (ref Hridya et al., 2015) is given as “Mixed”.
